In patent US20250230193A1, “CYCLIC COMPOUND HAVING SELECTIVE KRAS INHIBITORY EFFECT ON HRAS AND NRAS” (CHUGAI SEIYAKU KABUSHIKI KAISHA, priority 2022, published 2025):

How the values were obtained:
[1] = target: GDP-bound NRAS wild-type protein (Homo sapiens, UniProt P01111); assay: Binding to NRAS by surface plasmon resonance (SPR), Single Cycle Kinetics; settings: KD ratio NRAS/KRAS, SPR
[2] = target: GDP-bound HRAS wild-type protein (Homo sapiens, UniProt P01112); assay: Binding to HRAS by surface plasmon resonance (SPR), Single Cycle Kinetics; settings: KD ratio HRAS/KRAS, SPR
GDP-bound HRAS wild-type protein, sequence (P01112 whole entry): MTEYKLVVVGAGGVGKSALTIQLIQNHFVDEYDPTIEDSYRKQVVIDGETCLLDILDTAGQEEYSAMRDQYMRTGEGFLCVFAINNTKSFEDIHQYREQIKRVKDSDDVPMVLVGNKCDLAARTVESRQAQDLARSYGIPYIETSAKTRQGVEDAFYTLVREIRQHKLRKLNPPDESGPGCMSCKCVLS

GDP-bound NRAS wild-type protein, sequence (P01111 whole entry): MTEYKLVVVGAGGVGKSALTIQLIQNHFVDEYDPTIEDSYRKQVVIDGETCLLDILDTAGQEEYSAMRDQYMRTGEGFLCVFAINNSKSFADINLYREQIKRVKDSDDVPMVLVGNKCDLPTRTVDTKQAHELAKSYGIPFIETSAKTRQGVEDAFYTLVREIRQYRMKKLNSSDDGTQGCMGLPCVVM

Row | SMILES | NRAS/KRAS (ratio of KD value with respect to GDP-bound NRAS wild-type protein to KD value with respect to KRAS) [1] | HRAS/KRAS (ratio of KD value with respect to GDP-bound HRAS wild-type protein to KD value with respect to KRAS) [2]
1 | CCO[C@@H]1C[C@H]2C(=O)NC3(CCC3)C(=O)N(C)[C@@H](C3CCCC3)C(=O)N(C)[C@H](C(=O)N(C)C)CC(=O)N(C)[C@@H](Cc3cccnc3)C(=O)N[C@@H]([C@@H](C)CC)C(=O)N(C)CC(=O)N(C)[C@H]3CCCCCN(C3=O)[C@@H](Cc3ccc(C(F)(F)F)cc3)C(=O)N(C)CC(=O)N[C@@H](CCc3cc(F)c(C(F)(F)F)c(F)c3)C(=O)N2C1 [PP0673] | B (a compound having 3 or more and less than 10 is denoted as B) | B (a compound having 3 or more and less than 10 is denoted as B)
2 | CCO[C@@H]1C[C@H]2C(=O)NC3(CCC3)C(=O)N(C)[C@@H](C3CCCC3)C(=O)N(C)[C@H](C(=O)N(C)C)CC(=O)N(C)[C@@H](COC)C(=O)N[C@@H]([C@@H](C)CC)C(=O)N(C)CC(=O)N(C)[C@H]3CCCCCN(C3=O)[C@@H](Cc3ccc(C(F)(F)F)cc3)C(=O)N(C)CC(=O)N[C@@H](CCc3cc(F)c(C(F)(F)F)c(F)c3)C(=O)N2C1 [PP0674] | B (a compound having 3 or more and less than 10 is denoted as B) | B (a compound having 3 or more and less than 10 is denoted as B)
3 | CCO[C@@H]1C[C@H]2C(=O)NC3(CCC3)C(=O)N(C)[C@@H](C3CCCC3)C(=O)N(C)[C@H](C(=O)N(C)C)CC(=O)N(C)[C@@H](CCOC)C(=O)N[C@@H]([C@@H](C)CC)C(=O)N(C)CC(=O)N(C)[C@H]3CCCCCN(C3=O)[C@@H](Cc3ccc(C(F)(F)F)cc3)C(=O)N(C)CC(=O)N[C@@H](CCc3cc(F)c(C(F)(F)F)c(F)c3)C(=O)N2C1 [PP0675] | B (a compound having 3 or more and less than 10 is denoted as B) | B (a compound having 3 or more and less than 10 is denoted as B)
4 | CCO[C@@H]1C[C@H]2C(=O)NC3(CCC3)C(=O)N(C)[C@@H](C3CCCC3)C(=O)N(C)[C@H](C(=O)N3CCOCC3)CC(=O)N(C)[C@@H](CC)C(=O)N[C@@H]([C@@H](C)CC)C(=O)N(C)CC(=O)N(C)[C@H]3CCCCCN(C3=O)[C@@H](Cc3ccc(C(F)(F)F)cc3)C(=O)N(C)CC(=O)N[C@@H](CCc3cc(F)c(C(F)(F)F)c(F)c3)C(=O)N2C1 [PP0678] | B (a compound having 3 or more and less than 10 is denoted as B) | B (a compound having 3 or more and less than 10 is denoted as B)
5 | CCC[C@H]1C(=O)N[C@@H]([C@@H](C)CC)C(=O)N(C)CC(=O)N(C)[C@H]2CCCCCN(C2=O)[C@@H](Cc2ccc(C(F)(F)F)cc2)C(=O)N(C)CC(=O)N[C@@H](CCc2cc(F)c(C(F)(F)F)c(F)c2)C(=O)N2C[C@H](OCC)C[C@H]2C(=O)NC2(CCC2)C(=O)N(C)[C@@H](C2CCCC2)C(=O)N(C)[C@H](C(=O)N2CCOCC2)CC(=O)N1C [PP0679] | B (a compound having 3 or more and less than 10 is denoted as B) | B (a compound having 3 or more and less than 10 is denoted as B)
6 | C#CC[C@H]1C(=O)N[C@@H]([C@@H](C)CC)C(=O)N(C)CC(=O)N(C)[C@H]2CCCCCN(C2=O)[C@@H](Cc2ccc(C(F)(F)F)cc2)C(=O)N(C)CC(=O)N[C@@H](CCc2cc(F)c(C(F)(F)F)c(F)c2)C(=O)N2C[C@H](OCC)C[C@H]2C(=O)NC2(CCC2)C(=O)N(C)[C@@H](C2CCCC2)C(=O)N(C)[C@H](C(=O)N2CCOCC2)CC(=O)N1C [PP0681] | B (a compound having 3 or more and less than 10 is denoted as B) | B (a compound having 3 or more and less than 10 is denoted as B)
7 | CCO[C@@H]1C[C@H]2C(=O)NC3(CCC3)C(=O)N(C)[C@@H](C3CCCC3)C(=O)N(C)[C@H](C(=O)N3CCOCC3)CC(=O)N(C)[C@@H](CC3CC3)C(=O)N[C@@H]([C@@H](C)CC)C(=O)N(C)CC(=O)N(C)[C@H]3CCCCCN(C3=O)[C@@H](Cc3ccc(C(F)(F)F)cc3)C(=O)N(C)CC(=O)N[C@@H](CCc3cc(F)c(C(F)(F)F)c(F)c3)C(=O)N2C1 [PP0682] | B (a compound having 3 or more and less than 10 is denoted as B) | B (a compound having 3 or more and less than 10 is denoted as B)
8 | CCO[C@@H]1C[C@H]2C(=O)NC3(CCC3)C(=O)N(C)[C@@H](C3CCCC3)C(=O)N(C)[C@H](C(=O)N3CCOCC3)CC(=O)N(C)[C@@H](CC3CCC3)C(=O)N[C@@H]([C@@H](C)CC)C(=O)N(C)CC(=O)N(C)[C@H]3CCCCCN(C3=O)[C@@H](Cc3ccc(C(F)(F)F)cc3)C(=O)N(C)CC(=O)N[C@@H](CCc3cc(F)c(C(F)(F)F)c(F)c3)C(=O)N2C1 [PP0683] | B (a compound having 3 or more and less than 10 is denoted as B) | B (a compound having 3 or more and less than 10 is denoted as B)
9 | CCO[C@@H]1C[C@H]2C(=O)NC3(CCC3)C(=O)N(C)[C@@H](C3CCCC3)C(=O)N(C)[C@H](C(=O)N3CCOCC3)CC(=O)N(C)[C@@H](CC(C)(C)C)C(=O)N[C@@H]([C@@H](C)CC)C(=O)N(C)CC(=O)N(C)[C@H]3CCCCCN(C3=O)[C@@H](Cc3ccc(C(F)(F)F)cc3)C(=O)N(C)CC(=O)N[C@@H](CCc3cc(F)c(C(F)(F)F)c(F)c3)C(=O)N2C1 [PP0684] | B (a compound having 3 or more and less than 10 is denoted as B) | B (a compound having 3 or more and less than 10 is denoted as B)
10 | CCO[C@@H]1C[C@H]2C(=O)NC3(CCC3)C(=O)N(C)[C@@H](C3CCCC3)C(=O)N(C)[C@H](C(=O)N3CCOCC3)CC(=O)N(C)[C@@H](CC3CCCC3)C(=O)N[C@@H]([C@@H](C)CC)C(=O)N(C)CC(=O)N(C)[C@H]3CCCCCN(C3=O)[C@@H](Cc3ccc(C(F)(F)F)cc3)C(=O)N(C)CC(=O)N[C@@H](CCc3cc(F)c(C(F)(F)F)c(F)c3)C(=O)N2C1 [PP0685] | B (a compound having 3 or more and less than 10 is denoted as B) | B (a compound having 3 or more and less than 10 is denoted as B)
11 | CCO[C@@H]1C[C@H]2C(=O)NC3(CCC3)C(=O)N(C)[C@@H](C3CCCC3)C(=O)N(C)[C@H](C(=O)N3CCOCC3)CC(=O)N(C)[C@@H](CC3CCCCC3)C(=O)N[C@@H]([C@@H](C)CC)C(=O)N(C)CC(=O)N(C)[C@H]3CCCCCN(C3=O)[C@@H](Cc3ccc(C(F)(F)F)cc3)C(=O)N(C)CC(=O)N[C@@H](CCc3cc(F)c(C(F)(F)F)c(F)c3)C(=O)N2C1 [PP0686] | B (a compound having 3 or more and less than 10 is denoted as B) | B (a compound having 3 or more and less than 10 is denoted as B)
12 | CCO[C@@H]1C[C@H]2C(=O)NC3(CCC3)C(=O)N(C)[C@@H](C3CCCC3)C(=O)N(C)[C@H](C(=O)N3CCOCC3)CC(=O)N(C)[C@@H](Cc3ccccc3)C(=O)N[C@@H]([C@@H](C)CC)C(=O)N(C)CC(=O)N(C)[C@H]3CCCCCN(C3=O)[C@@H](Cc3ccc(C(F)(F)F)cc3)C(=O)N(C)CC(=O)N[C@@H](CCc3cc(F)c(C(F)(F)F)c(F)c3)C(=O)N2C1 [PP0687] | B (a compound having 3 or more and less than 10 is denoted as B) | B (a compound having 3 or more and less than 10 is denoted as B)
13 | CCO[C@@H]1C[C@H]2C(=O)NC3(CCC3)C(=O)N(C)[C@@H](C3CCCC3)C(=O)N(C)[C@H](C(=O)N3CCOCC3)CC(=O)N(C)[C@@H](COC)C(=O)N[C@@H]([C@@H](C)CC)C(=O)N(C)CC(=O)N(C)[C@H]3CCCCCN(C3=O)[C@@H](Cc3ccc(C(F)(F)F)cc3)C(=O)N(C)CC(=O)N[C@@H](CCc3cc(F)c(C(F)(F)F)c(F)c3)C(=O)N2C1 [PP0689] | B (a compound having 3 or more and less than 10 is denoted as B) | B (a compound having 3 or more and less than 10 is denoted as B)
14 | CCO[C@@H]1C[C@H]2C(=O)NC3(CCC3)C(=O)N(C)[C@@H](C3CCCC3)C(=O)N(C)[C@H](C(=O)N3CCOCC3)CC(=O)N(C)[C@@H](CCOC)C(=O)N[C@@H]([C@@H](C)CC)C(=O)N(C)CC(=O)N(C)[C@H]3CCCCCN(C3=O)[C@@H](Cc3ccc(C(F)(F)F)cc3)C(=O)N(C)CC(=O)N[C@@H](CCc3cc(F)c(C(F)(F)F)c(F)c3)C(=O)N2C1 [PP0690] | B (a compound having 3 or more and less than 10 is denoted as B) | B (a compound having 3 or more and less than 10 is denoted as B)
15 | CCO[C@@H]1C[C@H]2C(=O)NC3(CCC3)C(=O)N(C)[C@@H](C3CCCC3)C(=O)N(C)[C@H](C(=O)N(C)C)CC(=O)N(C)[C@@H](CC)C(=O)N[C@@H]([C@@H](C)CC)C(=O)N(C)CC(=O)N(C)[C@H]3CCCCN(C3=O)[C@@H](Cc3ccc(C(F)(F)F)cc3)C(=O)N(C)CC(=O)N[C@@H](CCc3cc(F)c(C(F)(F)F)c(F)c3)C(=O)N2C1 [PP0693] | C (A compound having a KD ratio of 0.1 or more and less than 3 is denoted as C) | C (A compound having a KD ratio of 0.1 or more and less than 3 is denoted as C)
